Structures can show the parent of a compound that is named as a salt.
Molecular target: ATM (Homo sapiens (Human), UniProt Q13315)
Assay: ATM in Cell Western Assay (pKAP1 in etoposide-treated MCF-7 cells)
Assay type: cell-based
Conditions: MCF-7 cells, etoposide 100 μM, 1 hr, pKAP1 readout
Method in brief: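 Cells received compounds in a 10-dose, 3-fold series from a 1 μM final top concentration, then 100 μM etoposide, for 1 hr at 37° C. They were then fixed with paraformaldehyde and permeabilized with 0.1% Triton X-100. After immunostaining, plates were scanned on an infrared imager.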

Sequence of ATM (Q13315 whole entry): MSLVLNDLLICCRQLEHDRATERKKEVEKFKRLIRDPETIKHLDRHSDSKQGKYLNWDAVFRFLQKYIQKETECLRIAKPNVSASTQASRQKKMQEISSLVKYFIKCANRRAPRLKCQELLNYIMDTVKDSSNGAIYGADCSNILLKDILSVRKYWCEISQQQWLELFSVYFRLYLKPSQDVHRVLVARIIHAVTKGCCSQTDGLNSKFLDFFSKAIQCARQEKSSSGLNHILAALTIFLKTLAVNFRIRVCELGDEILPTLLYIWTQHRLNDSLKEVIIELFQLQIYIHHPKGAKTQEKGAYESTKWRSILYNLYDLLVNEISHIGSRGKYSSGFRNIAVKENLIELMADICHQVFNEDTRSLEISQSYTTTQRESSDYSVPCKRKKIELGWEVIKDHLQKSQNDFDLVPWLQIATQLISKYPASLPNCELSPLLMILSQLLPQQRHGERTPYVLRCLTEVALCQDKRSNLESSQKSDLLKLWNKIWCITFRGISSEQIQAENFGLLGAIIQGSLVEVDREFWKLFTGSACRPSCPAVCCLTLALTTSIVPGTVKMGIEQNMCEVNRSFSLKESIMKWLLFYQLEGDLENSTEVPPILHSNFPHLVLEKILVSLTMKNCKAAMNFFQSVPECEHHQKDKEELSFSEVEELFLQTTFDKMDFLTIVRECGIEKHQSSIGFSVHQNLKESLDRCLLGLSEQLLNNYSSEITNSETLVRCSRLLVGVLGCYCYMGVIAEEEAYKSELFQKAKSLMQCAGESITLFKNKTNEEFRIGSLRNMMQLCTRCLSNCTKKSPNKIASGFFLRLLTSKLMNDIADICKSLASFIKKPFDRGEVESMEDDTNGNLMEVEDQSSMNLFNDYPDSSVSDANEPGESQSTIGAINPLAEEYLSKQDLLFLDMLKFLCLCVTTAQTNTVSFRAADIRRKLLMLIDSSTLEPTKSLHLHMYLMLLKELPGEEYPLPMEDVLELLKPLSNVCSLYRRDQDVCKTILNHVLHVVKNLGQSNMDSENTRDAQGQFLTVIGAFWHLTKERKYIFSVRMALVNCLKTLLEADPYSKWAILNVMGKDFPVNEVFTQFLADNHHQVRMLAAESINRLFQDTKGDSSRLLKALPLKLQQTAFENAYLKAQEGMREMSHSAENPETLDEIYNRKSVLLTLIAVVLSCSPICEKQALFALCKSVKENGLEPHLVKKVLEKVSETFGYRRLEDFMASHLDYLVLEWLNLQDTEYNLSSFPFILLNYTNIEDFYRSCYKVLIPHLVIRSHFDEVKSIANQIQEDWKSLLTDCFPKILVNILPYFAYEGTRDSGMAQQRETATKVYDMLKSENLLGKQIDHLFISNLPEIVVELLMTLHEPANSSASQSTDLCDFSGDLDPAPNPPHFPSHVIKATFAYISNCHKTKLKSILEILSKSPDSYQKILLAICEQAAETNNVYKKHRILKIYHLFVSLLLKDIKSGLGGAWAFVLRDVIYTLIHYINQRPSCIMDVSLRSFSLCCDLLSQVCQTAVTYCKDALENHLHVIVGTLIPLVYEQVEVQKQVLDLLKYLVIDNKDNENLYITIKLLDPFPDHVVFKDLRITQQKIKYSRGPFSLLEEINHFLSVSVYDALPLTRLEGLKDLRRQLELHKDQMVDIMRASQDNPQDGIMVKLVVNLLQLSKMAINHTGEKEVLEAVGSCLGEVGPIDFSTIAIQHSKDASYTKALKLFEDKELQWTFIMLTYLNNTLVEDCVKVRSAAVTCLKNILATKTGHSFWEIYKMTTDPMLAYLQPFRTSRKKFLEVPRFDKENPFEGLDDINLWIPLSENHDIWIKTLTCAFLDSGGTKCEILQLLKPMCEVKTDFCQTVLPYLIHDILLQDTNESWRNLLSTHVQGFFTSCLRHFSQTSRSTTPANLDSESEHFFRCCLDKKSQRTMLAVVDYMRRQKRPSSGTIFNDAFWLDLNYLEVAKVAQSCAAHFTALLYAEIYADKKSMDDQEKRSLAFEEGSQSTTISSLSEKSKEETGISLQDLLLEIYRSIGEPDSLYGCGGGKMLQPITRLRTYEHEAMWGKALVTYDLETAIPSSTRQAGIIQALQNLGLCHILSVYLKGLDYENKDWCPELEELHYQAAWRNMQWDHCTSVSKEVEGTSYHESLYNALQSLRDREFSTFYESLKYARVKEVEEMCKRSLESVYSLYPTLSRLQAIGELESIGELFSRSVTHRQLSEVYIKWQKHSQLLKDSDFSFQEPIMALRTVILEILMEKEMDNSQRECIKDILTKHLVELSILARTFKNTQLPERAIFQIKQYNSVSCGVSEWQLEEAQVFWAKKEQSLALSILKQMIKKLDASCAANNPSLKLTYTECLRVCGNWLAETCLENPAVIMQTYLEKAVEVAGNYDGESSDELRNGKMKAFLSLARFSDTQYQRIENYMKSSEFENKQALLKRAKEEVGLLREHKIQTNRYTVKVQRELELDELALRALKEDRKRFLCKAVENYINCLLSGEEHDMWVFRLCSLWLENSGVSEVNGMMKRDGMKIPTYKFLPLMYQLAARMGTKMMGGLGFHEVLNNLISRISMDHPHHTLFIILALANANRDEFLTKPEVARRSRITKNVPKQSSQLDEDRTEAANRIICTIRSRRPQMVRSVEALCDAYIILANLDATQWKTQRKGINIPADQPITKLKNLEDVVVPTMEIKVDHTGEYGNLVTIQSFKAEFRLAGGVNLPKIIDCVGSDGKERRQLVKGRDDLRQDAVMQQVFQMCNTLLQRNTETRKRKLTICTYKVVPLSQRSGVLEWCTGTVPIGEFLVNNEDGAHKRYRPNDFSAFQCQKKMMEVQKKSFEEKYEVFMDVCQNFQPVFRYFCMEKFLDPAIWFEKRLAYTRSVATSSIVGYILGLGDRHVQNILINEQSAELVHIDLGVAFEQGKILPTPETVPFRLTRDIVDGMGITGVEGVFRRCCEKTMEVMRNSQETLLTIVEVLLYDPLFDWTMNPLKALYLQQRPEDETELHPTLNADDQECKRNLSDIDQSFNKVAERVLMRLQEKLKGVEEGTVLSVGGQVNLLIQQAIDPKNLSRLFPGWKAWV

Row | IC50 | Compound
1 | 1 to 100 nM | CN1C(=O)C2(CCC2)c2c1cnc1cc(F)c(-c3cnc(N4CC(N(C)C)C4)c(NS(=O)(=O)c4ccccc4F)c3)cc21 [Example 322, N-(2-(3-(Dimethylamino)azetidin-1-yl)-5-(7′-fluoro-3′-methyl-2′-oxo-2′,3′-dihydrospiro[cyclobulane-1,1′-pyrrolo[2,3-c]quinolin]-8′-yl)pyridin-3-yl)-2-fluorobenzenesulfonamide hydrochloride]
2 | > 100 nM | CN1C(=O)C2(CCC2)c2c1c(N)nc1ccc(-c3cnc(N4CC(N(C)C)C4)c(NS(C)(=O)=O)c3)cc21 [Example 327, N-(5-(4′-Amino-3′-methyl-2′-oxo-2′,3′-dihydrospiro[cyclobutane-1,1′-pyrrolo[2,3-c]quinolin]-8′-yl)-2-(3-(dimethylamino)azetidin-1-yl)pyridin-3-yl)methanesulfonamide hydrochloride]
3 | 1 to 100 nM | CC(C)NC1CN(c2ncc(-c3cc4c5c(cnc4cc3F)N(C)C(=O)C53CCC3)cc2NS(C)(=O)=O)C1 [Example 328, N-(5-(7′-Fluoro-3′-methyl-2′-oxo-2′,3′-dihydrospiro[cyclobutane-1,1′-pyrrolo[2,3-c]quinolin]-8′-yl)-2-(3-(isopropylamino)azetidin-1-yl)pyridin-3-yl)methanesulfonamide hydrochloride]
4 | 1 to 100 nM | Cc1cc2ncc3c(c2cc1-c1cnc(N2CC(N(C)C)C2)c(NS(C)(=O)=O)c1)C1(CCC1)C(=O)N3C [Example 335, N-(5-(3′-,7′-Dimethyl-2′-oxo-2′,3′-dihydrospiro[cyclobutane-1,1′-pyrrolo[2,3-c]quinolin]-8′-yl)-2-(3-(dimethylamino)azetidin-1-yl)pyridin-3-yl)methanesulfonamide]
5 | 1 to 100 nM | CCN1C(=O)C2(CCC2)c2c1cnc1ccc(-c3cnc(N4CC(N(C)C)C4)c(NS(C)(=O)=O)c3)cc21 [Example 336, N-(2-(3-(Dimethylamino)azetidin-1-yl)-5-(3′-ethyl-2′-oxo-2′,3′-dihydrospiro [cyclobutane-1,1′-pyrrolo[2,3-c]quinolin]-8′-yl)pyridin-3-yl) methanesulfonamide]

Same assay, conditions: pKAP1 in etoposide-treated MCF-7 cells

Row | IC50 | Compound
6 | 1 to 100 nM | CCN1C(=O)C2(CCC2)c2c1cnc1ccc(-c3cnc(N4CC(N(C)C)C4)c(NS(=O)(=O)c4ccccc4)c3)cc21 [Example 337, N-(2-(3-(Dimethylamino)azetidin-1-yl)-5-(3′-ethyl-2′-oxo-2′,3′-dihydrospiro[cyclobutane-1,1′-pyrrolo[2,3-c]quinolin]-8′-yl)pyridin-3-yl)benzenesulfonamide]
7 | 1 to 100 nM | CNS(=O)(=O)Nc1cc(-c2cc3c4c(cnc3cc2F)N(C)C(=O)C42CCC2)cnc1N1CC(N(C)C)C1 [Example 340, 8′-{6-[3-(Dimethylamino)azetidin-1-yl]-5-[(methylsulfamoyl)amino]pyridin-3-yl}-7′-fluoro-3′-methyl-2′,3′-dihydrospiro[cyclobutane-1,1′-pyrrolo[2,3-c]quinoline]-2′-one]
8 | > 100 nM | CN1C(=O)C2(CCC2)c2c1cnc1cc(F)c(-c3cnc(N4CC(N(C)C)C4)c(NS(=O)(=O)C(F)F)c3)cc21 [Example 341, N-(2-(3-(Dimethylamino)azetidin-1-yl)-5-(7′-fluoro-3′-methyl-2′-oxo-2′,3′-dihydrospiro[cyclobutane-1,1′-pyrrolo[2,3-c]quinolin]-8′-yl)pyridin-3-yl)-1,1′-difluoromethane-sulfonamide formate]
9 | > 100 nM | CN1C(=O)C2(CCC2)c2c1cnc1cc(F)c(-c3cnc(N4CC(N(C)C)C4)c(NS(=O)(=O)CC#N)c3)cc21 [Example 342, 1-Cyano-N-(2-(3-(dimethylamino)azetidin-1-yl)-5-(7′-fluoro-3′-methyl-2′-oxo-2′,3′-dihydrospiro [cyclobutane-1,1′-pyrrolo [2,3-c]quinolin]-8′-yl)pyridin-3-yl)methanesulfonamide hydrochloride]
10 | > 100 nM | CN1C(=O)C2(CCC2)c2c1cnc1cc(F)c(-c3cnc(N4CC(CN5CCOCC5)C4)c(NS(C)(=O)=O)c3)cc21 [Example 344, N-(5-(7′-Fluoro-3′-methyl-2′-oxo-2′,3′-dihydrospiro[cyclobutane-1,1′-pyrrolo[2,3-c]quinolin]-8′-yl)-2-(3-(morpholinomethyl)azetidin-1-yl)pyridin-3-yl)methanesulfonamideformate]
11 | 1 to 100 nM | CN1CC2(C1)CN(c1ncc(-c3ccc4ncc5c(c4c3)C3(CCC3)C(=O)N5C)cc1NS(C)(=O)=O)C2 [Example 345, N-(5-(3′-Methyl-2′-oxo-2′,3′-dihydrospiro[cyclobutane-1,1′-pyrrolo[2,3-c]quinolin]-8′-yl)-2-(6-methyl-2,6-diazaspiro[3.3]heptan-2-yl)pyridin-3-yl)methanesulfonamide formate]
12 | > 100 nM | CN1C(=O)C2(CCC2)c2c1cnc1ccc(-c3cnc(N4CC5(CNC5)C4)c(NS(C)(=O)=O)c3)cc21 [Example 346, N-(5-(3′-Methyl-2′-oxo-2′,3′-dihydrospiro[cyclobutane-1,1 pyrrole[2,3-c]quinolin]-8′-yl)-2-(2,6-diazaspiro[3.3]heptan-2-yl)pyridin-3-yl) methanesulfonamide formate]
13 | > 100 nM | CN1C(=O)C2(CCC2)c2c1cnc1ccc(-c3cnc(N4CC5(CN(C(=O)OC(C)(C)C)C5)C4)c(NS(C)(=O)=O)c3)cc21 [Example 347, tert-Butyl 6-(5-(3′-methyl-2′-oxo-2′,3′-dihydrospiro [cyclobutane-1,1′-pyrrolo[2,3-c]quinolin]-8′-yl)-3-(methylsulfonamido)pyridin-2-yl)-2,6-diazaspiro[3.3] heptane-2-carboxylate]
14 | > 100 nM | CN1C(=O)C2(CCC2)c2c1cnc1ccc(-c3cnc(N4CC5CN(C(=O)OC(C)(C)C)CC5C4)c(NS(C)(=O)=O)c3)cc21 (centres unmarked) [Example 348, tert-Butyl 5-(5-(3′-methyl-2′-oxo-2′,3′-dihydrospiro [cyclobutane-1,1′-pyrrolo[2,3-c]quinolin]-8′-yl)-3-(methylsulfonamido)pyridin-2-yl) hexahydropyrrolo [3,4-c] pyrrole-2(1H)-carboxylate]
15 | 1 to 100 nM | CN1C(=O)C2(CCC2)c2c1cnc1ccc(-c3cnc(N4CC5CNCC5C4)c(NS(C)(=O)=O)c3)cc21 (centres unmarked) [Example 349, N-(2-(Hexahydropyrrolo[3,4-c]pyrrol-2(1H)-yl)-5-(3′-methyl-2′-oxo-2′,3′-dihydrospiro [cyclobutane-1,1′-pyrrolo[2,3-c]quinolin]-8′-yl)pyridin-3-yl) methanesulfonamide formate]
16 | > 100 nM | CN1C(=O)C2(CCC2)c2c1cnc1ccc(-c3cnc(N4CCC(C)(N5CCCCC5)CC4)c(NS(C)(=O)=O)c3)cc21 [Example 354, N-(5-(3′-Methyl-2′-oxo-2′,3′-dihydrospiro[cyclobutane-1,1′-pyrrolo[2,3-c]quinolin]-8′-yl)-2-(4′-methyl-[l,4′-bipiperidin]-1′-yl)pyridin-3-yl)methanesulfonamide]
17 | > 100 nM | CN1C(=O)C2(CCC2)c2c1cnc1ccc(-c3cnc(N4CC5CC(C4)N5C(=O)OC(C)(C)C)c(NS(C)(=O)=O)c3)cc21 [Example 359, tert-Butyl 3-(5-(3′-methyl-2′-oxo-2′,3′-dihydrospiro [cyclobutane-1,1′-pyrrolo[2,3-c]quinolin]-8′-yl)-3-(methylsulfonamido)pyridin-2-yl)-3,6-diazabicydo[3.1.1] heptane-6-carboxylate]
